Assays:
[1] = biological target: Urease (Canavalia ensiformis) (UniProt P07374); assay: Inhibition of Canavalia ensiformis (jack bean) urease assessed as ammonia production using urea as substrate at 1 uM after 15 min by indophenol method
[2] = biological target: Urease (Canavalia ensiformis) (UniProt P07374); assay: Inhibition of Canavalia ensiformis (jack bean) urease assessed as ammonia production using urea as substrate at 10 uM after 15 min by indophenol method
[3] = biological target: Urease (Canavalia ensiformis) (UniProt P07374); assay: Inhibition of Canavalia ensiformis (jack bean) urease assessed as ammonia production using urea as substrate at 100 uM after 15 min by indophenol method
[4] = biological target: Urease (Canavalia ensiformis) (UniProt P07374); assay: Inhibition of Canavalia ensiformis (jack bean) urease assessed as ammonia production using urea as substrate at 0.01 uM after 15 min by indophenol method
[5] = biological target: Urease (Canavalia ensiformis) (UniProt P07374); assay: Inhibition of Canavalia ensiformis (jack bean) urease assessed as ammonia production using urea as substrate at 0.1 uM after 15 min by indophenol method

Chain of Urease (Canavalia ensiformis) (P07374 whole entry, looked up): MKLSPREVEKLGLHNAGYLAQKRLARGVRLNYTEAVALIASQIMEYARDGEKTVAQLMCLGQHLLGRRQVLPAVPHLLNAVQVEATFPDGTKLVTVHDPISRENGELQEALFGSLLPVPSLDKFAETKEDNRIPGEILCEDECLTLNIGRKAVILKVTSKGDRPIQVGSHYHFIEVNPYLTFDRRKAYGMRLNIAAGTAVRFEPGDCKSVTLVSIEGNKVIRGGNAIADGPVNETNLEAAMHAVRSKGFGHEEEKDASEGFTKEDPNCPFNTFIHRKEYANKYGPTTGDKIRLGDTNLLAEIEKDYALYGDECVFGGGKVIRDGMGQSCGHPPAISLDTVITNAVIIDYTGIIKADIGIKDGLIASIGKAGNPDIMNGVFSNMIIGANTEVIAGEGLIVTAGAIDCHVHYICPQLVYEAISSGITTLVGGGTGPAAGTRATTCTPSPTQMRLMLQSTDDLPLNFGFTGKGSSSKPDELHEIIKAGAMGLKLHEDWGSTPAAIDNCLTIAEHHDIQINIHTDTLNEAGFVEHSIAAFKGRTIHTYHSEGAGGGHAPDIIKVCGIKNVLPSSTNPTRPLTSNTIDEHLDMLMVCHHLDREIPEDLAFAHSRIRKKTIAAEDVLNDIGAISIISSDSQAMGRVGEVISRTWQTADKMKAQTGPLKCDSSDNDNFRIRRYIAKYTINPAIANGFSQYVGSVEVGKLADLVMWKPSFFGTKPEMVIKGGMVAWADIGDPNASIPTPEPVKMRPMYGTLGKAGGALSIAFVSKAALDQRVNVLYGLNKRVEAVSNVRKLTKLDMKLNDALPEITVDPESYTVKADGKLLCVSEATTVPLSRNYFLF

| SMILES | inhibition [1] [%] | inhibition [2] [%] | inhibition [3] [%] | inhibition [4] [%] | inhibition [5] [%] |
| --- | --- | --- | --- | --- | --- |
| CC1=CC2=NC(=O)/C(=C\NNC(=O)c3ccc([N+](=O)[O-])cc3)C(=O)N2C=C1 | 54 | 60 | 87 | 6 | 21 |
| CC1=CC2=NC(=O)CC(=O)N2C=C1 | 12 | 26 | 39 | 1 | 6 |
| CC1=CC2=NC(=O)/C(=C\Nc3cc(C)ccn3)C(=O)N2C=C1 | 16 | 20 | 33 | 1 | 6 |
| CC1=CC2=NC(=O)/C(=C\Nc3ccccc3S)C(=O)N2C=C1 | 60 | 73 | 97 | 22 | 28 |
| CC1=CC2=NC(=O)/C(=C\NNC(=O)c3ccccc3)C(=O)N2C=C1 | 6 | 13 | 26 | -1 | 1 |
| CC1=CC2=NC(=O)/C(=C\NNC(=O)c3ccc(Br)cc3)C(=O)N2C=C1 | 3 | 23 | 57 | -8 | -2 |
| CC(=O)c1ccccc1N/C=C1\C(=O)N=C2C=C(C)C=CN2C1=O | 32 | 54 | 69 | 11 | 19 |
| CC1=CC2=NC(=O)/C(=C\Nc3cccc(F)c3)C(=O)N2C=C1 |  | 3 | 28 |  |  |
| CC1=CC2=NC(=O)/C(=C\NNC(=O)c3ccc(O)cc3)C(=O)N2C=C1 | 7 | 22 | 39 | -5 | -1 |
| CC(=O)c1cccc(N/C=C2\C(=O)N=C3C=C(C)C=CN3C2=O)c1 | 8 | 28 | 45 | -1 | 3 |
| CC1=CC2=NC(=O)/C(=C\Nc3ccc([N+](=O)[O-])cn3)C(=O)N2C=C1 | 23 | 36 | 48 | 3 | 6 |
| CC1=CC2=NC(=O)/C(=C\Nc3ccc(F)cc3)C(=O)N2C=C1 | 14 | 21 | 35 | 1 | 6 |
| CC(=O)c1ccc(N/C=C2\C(=O)N=C3C=C(C)C=CN3C2=O)cc1 | 1 | 5 | 18 | -3 | -2 |
| CC1=CC2=NC(=O)/C(=C\NNC(=O)c3ccc(Cl)cc3)C(=O)N2C=C1 | 6 | 14 | 43 | -4 | -2 |
| CC1=CC2=NC(=O)/C(=C\Nc3c(C)cc(C)cc3C)C(=O)N2C=C1 | -1 | -8 | 0.2 |  | -6 |
| NC(N)=S | 15 | 21 | 94 | 8 | 8 |
| CC1=CC2=NC(=O)/C(=C\Nc3ccccc3F)C(=O)N2C=C1 | 26 | 44 | 57 | 3 | 10 |
| CC1=CC2=NC(=O)/C(=C\Nc3ccc(C)cn3)C(=O)N2C=C1 | 24 | 48 | 57 | 3 | 11 |
